Data from paper PMC6171417, “Carbonic anhydrase inhibition with a series of novel benzenesulfonamide-triazole conjugates” (Journal of Enzyme Inhibition and Medicinal Chemistry, 2018).

Legend:
Assay in all cases: stopped-flow CO2 hydrase assay
Format in all cases: biochemical
[1] = molecular target: T1, hCA I (Homo sapiens, UniProt P00915)
T1 construct: gene CA1; recombinant, obtained in-house as reported earlier; cytosolic
Source text: stopped-flow CO2 hydrase assay on hCA I

[2] = molecular target: T2, hCA IX (Homo sapiens, UniProt Q16790)
T2 construct: gene CA9; recombinant, obtained in-house as reported earlier
Source text: stopped-flow CO2 hydrase assay on hCA IX

[3] = molecular target: T3, hCA II (Homo sapiens, UniProt P00918)
T3 construct: gene CA2; recombinant, obtained in-house as reported earlier; cytosolic
Source text: stopped-flow CO2 hydrase assay on hCA II

[4] = molecular target: T4, hCA IV (Homo sapiens, UniProt P22748)
T4 construct: gene CA4; recombinant, obtained in-house as reported earlier
T4 sequence (P22748 19-284): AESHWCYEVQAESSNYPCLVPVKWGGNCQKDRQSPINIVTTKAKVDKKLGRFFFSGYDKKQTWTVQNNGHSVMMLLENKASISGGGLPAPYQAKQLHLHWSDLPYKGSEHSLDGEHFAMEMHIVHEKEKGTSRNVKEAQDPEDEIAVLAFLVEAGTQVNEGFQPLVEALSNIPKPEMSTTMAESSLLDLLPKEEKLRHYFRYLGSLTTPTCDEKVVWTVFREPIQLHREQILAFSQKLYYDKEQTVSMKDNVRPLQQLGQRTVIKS
Source text: stopped-flow CO2 hydrase assay on hCA IV

T1 sequence (P00915 2-261): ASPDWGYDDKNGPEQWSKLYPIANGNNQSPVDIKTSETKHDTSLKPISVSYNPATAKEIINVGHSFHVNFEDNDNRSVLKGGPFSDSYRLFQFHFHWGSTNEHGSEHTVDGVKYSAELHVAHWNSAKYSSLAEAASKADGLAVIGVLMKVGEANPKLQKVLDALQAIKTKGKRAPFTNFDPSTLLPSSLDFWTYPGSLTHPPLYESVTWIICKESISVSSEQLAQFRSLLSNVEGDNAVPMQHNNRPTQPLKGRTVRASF

| Compound | Ki [1] [nM] | Ki [2] [nM] | Ki [3] [nM] | Ki [4] [nM] |
| --- | --- | --- | --- | --- |
| N#Cc1nnn(-c2ccc(S(N)(=O)=O)cc2)c1NC(=O)CCl [compound 5, 2-chloro-N-(4-cyano-1-(4-sulfamoylphenyl)-1H-1,2,3-triazol-5-yl)acetamide] | 2550 | 454 | 518 | 1200 |
| N#Cc1c(-c2ccccc2Cl)nc2c(nnn2-c2ccc(S(N)(=O)=O)cc2)c1N [compound 15, 4-(7-amino-5-(2-chlorophenyl)-6-cyano-3H-[1,2,3]triazolo[4,5-b]pyridin-3-yl)benzenesulfonamide] | 2690 | 407 | 230 | 2580 |
| N=c1c2nnn(-c3ccc(S(N)(=O)=O)cc3)c2[nH]c(=S)n1-c1ccc(S(=O)(=O)Nc2cnc3ccccc3n2)cc1 [compound 21] | 5840 | 3810 | 2370 | 5030 |
| N#Cc1c(-c2ccccc2)nc2c(nnn2-c2ccc(S(N)(=O)=O)cc2)c1N [compound 14, 4-(7-amino-6-cyano-5-phenyl-3H-[1,2,3]triazolo[4,5-b]pyridin-3-yl)benzenesulfonamide] | 1250 | 46.4 | 57 | 676 |
| N#Cc1c(N)c2nnn(-c3ccc(S(N)(=O)=O)cc3)c2[nH]c1=O [compound 13, 4-(7-amino-6-cyano-5-oxo-4,5-dihydro-3H-[1,2,3]triazolo[4,5-b]pyridin-3-yl) benzenesulfonamide] | 790 | 287 | 957 | 167 |
| Nc1c(C2=NCCN2)nnn1-c1ccc(S(N)(=O)=O)cc1 [compound 4, 4-(5-amino-4-(4,5-dihydro-1H-imidazol-2-yl)-1H-1,2,3-triazol-1-yl)benzenesulfonamide] | 9940 | 3710 | 6840 | 3190 |
| N#Cc1nnn(-c2ccc(S(N)(=O)=O)cc2)c1N [compound 3, 4-(5-amino-4-cyano-1H-1,2,3-triazol-1-yl)benzenesulfonamide] | 1940 | 118 | 16.7 | 2270 |
| N#Cc1nnn(-c2ccc(S(N)(=O)=O)cc2)c1/N=C/c1ccccc1Cl [compound 8, (E)-4-(5-((2-chlorobenzylidene)amino)-4-cyano-1H-1,2,3-triazol-1-yl)-benzenesulfonamide] | 5140 | 1770 | 6130 | > 10000 |
| N=c1c2nnn(-c3ccc(S(N)(=O)=O)cc3)c2[nH]c(=O)n1-c1ccccc1 [compound 19, 4-(7-imino-5-oxo-6-phenyl-4,5,6,7-tetrahydro-3H-[1,2,3]triazolo[4,5-d]pyrimidin-3-yl)benzenesulfonamide] | 2800 | 158 | 589 | 2270 |
| [N-]=[N+]=Nc1ccc(S(N)(=O)=O)cc1 [compound 2, 4-azido benzenesulfonamide] |  | 235 |  | > 10000 |
| CN(C)c1ccc(/C=N/c2c(C#N)nnn2-c2ccc(S(N)(=O)=O)cc2)cc1 [compound 10, (E)-4-(4-cyano-5-((4-(dimethylamino)benzylidene)amino)-1H-1,2,3-triazol-1-yl)benzenesulfonamide] | 2920 | 451 | 179 | 3410 |
| Cc1ccc(S(=O)(=O)Nc2c(C#N)nnn2-c2ccc(S(N)(=O)=O)cc2)cc1 [compound 12, N-(4-cyano-1-(4-sulfamoylphenyl)-1H-1,2,3-triazol-5-yl)-4-methylbenzenesulfonamide] | 8100 | 105 | 90.1 | 2610 |
| N#Cc1nnn(-c2ccc(S(N)(=O)=O)cc2)c1/N=C/c1ccc(Cl)cc1 [compound 9, (E)-4-(5-((4-chlorobenzylidene)amino)-4-cyano-1H-1,2,3-triazol-1-yl) benzenesulfonamide] | 1600 | 307 | 94.5 | 4670 |
| N#Cc1nnn(-c2ccc(S(N)(=O)=O)cc2)c1NCC(=O)c1ccccc1 [compound 7, 4-(4-cyano-5-((2-oxo-2-phenylethyl)amino)-1H-1,2,3-triazol-1-yl)benzenesulfonamide] | 1790 | 283 | 562 | 745 |
| CC(=O)CC(=O)Nc1c(C#N)nnn1-c1ccc(S(N)(=O)=O)cc1 [compound 6, N-(4-cyano-1-(4-sulfamoylphenyl)-1H-1,2,3-triazol-5-yl)-3-oxobutanamide] | 2860 | 410 | 684 | 472 |
